Data reported in patent US11518823B2, “Photoinitiators for light-curable compositions” (priority 2017, dated 2022).
“And” between values parts separate entries of the source, which are not always exact repeats. Identical values can stand only once. Each block holds one molecule with its values, some of them ahead of it.

Key:
[1] = photo-DSC monitoring of photopolymerization in hexanediol diacrylate
Description: (§1) In the following examples, of the inventive use of compounds of formula (I) as photo-initiators, reaction mixtures containing the respective photoinitiator, the specified liquid monomer and optionally a specified co-intiator were produced and cured for 10 min under a nitrogen atmosphere by exposure to an OmniCure® S2000 mercury lamp having a wave length filter of 320 to 500 nm and an UV light intensity of 1 W/cm^2, while the progress of the reactions was monitored by photo-DSC type NETSCH DSC 204 F1 Phoenix.
(§2) All measurements were carried out at least twice, the respective tables showing the average values for the respective initiators.
(§3) In the tables, RP represents the polymerization rate and is thus an indicator of the reactivity of a system. A high value means that many monomer groups are reacted at the same time and that the curing process is generally shorter. tmax is the time (in s) it takes until maximum heat development is reached and is thus an indicator of how long it takes to reach the gelling point and thus a certain initial solidity. Short times are thus more desirable. t95% is the time (in s) after which 95% of the entire reaction heat have been released and is thus an indicator of the rate at which a reaction occurs, lower values again being advantageous. DBC is the double bond conversion rate calculated based on the reaction heat released during polymerization (in J per g) of the respective formulation. For the conversion rate, it is desirable to achieve values that are as high as possible.
(§4) In all formulations, the respective photoinitiator was used in an equimolar amount with respect to 1 wt % of ethyl pyruvate (1), which was the initiator having the lowest molecular weight, and weighed in accordingly, and co-initiators, if contained, were weighed in equimolar amounts with respect to the respective initiator. Subsequently, 12±0.5 mg of the reaction mixtures were weighed into DSC aluminum pans, and the pans were covered with cover glasses.

[2] = photo-DSC monitoring of photopolymerization in dental dimethacrylate mixture
Description: All measurements were carried out at least twice, the respective tables showing the average values for the respective initiators. In the tables, RP represents the polymerization rate and is thus an indicator of the reactivity of a system. A high value means that many monomer groups are reacted at the same time and that the curing process is generally shorter. tmax is the time (in s) it takes until maximum heat development is reached and is thus an indicator of how long it takes to reach the gelling point and thus a certain initial solidity. Short times are thus more desirable. t95% is the time (in s) after which 95% of the entire reaction heat have been released and is thus an indicator of the rate at which a reaction occurs, lower values again being advantageous. DBC is the double bond conversion rate calculated based on the reaction heat released during polymerization (in J per g) of the respective formulation. For the conversion rate, it is desirable to achieve values that are as high as possible. In all formulations, the respective photoinitiator was used in an equimolar amount with respect to 1 wt % of ethyl pyruvate (1), which was the initiator having the lowest molecular weight, and weighed in accordingly, and co-initiators, if contained, were weighed in equimolar amounts with respect to the respective initiator. […] In this group of experiments, the experiments from Examples 1 to 4 and Comparative Example 1 were repeated, using a di-methacrylate mixture from the field of dental engineering as a monomer instead of the diacrylate that had been used above.

[3] = photo-DSC monitoring of photopolymerization in divinyl adipate; conditions: monomer DVA, co-initiator DMAB
Description: In the following examples, of the inventive use of compounds of formula (I) as photo-initiators, reaction mixtures containing the respective photoinitiator, the specified liquid monomer and optionally a specified co-intiator were produced and cured for 10 min under a nitrogen atmosphere by exposure to an OmniCure® S2000 mercury lamp having a wave length filter of 320 to 500 nm and an UV light intensity of 1 W/cm^2, while the progress of the reactions was monitored by photo-DSC type […]1 Phoenix. All measurements were carried out at least twice, the respective tables showing the average values for the respective initiators. In the tables, RP represents the polymerization rate and is thus an indicator of the reactivity of a system. A high value means that many monomer groups are reacted at the same time and that the curing process is generally shorter. tmax is the time (in s) it takes until maximum heat development is reached and is thus an indicator of how long it takes to reach the gelling point and thus a certain initial solidity. Short times are thus more desirable. t95% is the time (in s) after which 95% of the entire reaction heat have been released and is thus an indicator of the rate at which a reaction occurs, lower values again being advantageous. DBC is the double bond conversion rate calculated based on the reaction heat released during polymerization (in J per g) of the respective formulation. For the conversion rate, it is desirable to achieve values that are as high as possible. In all formulations, the respective photoinitiator was used in an equimolar amount with respect to 1 wt % of ethyl pyruvate (1), which was the initiator having the lowest molecular weight, and weighed in accordingly, and co-initiators, if contained, were weighed in equimolar amounts with respect to the respective initiator. Subsequently, 12±0.5 mg of the reaction mixtures were weighed into DSC aluminum pans, and the pans were covered with cover glasses.

[4] = system: mouse fibroblast cell line L929; format: cell-based
Description: This may constitute an additional advantage for biological applications in which hydrogels are commonly used.

[5] = photo-DSC of hydrogel formulation with PEG700DA and 50 wt % water
Description: as §1, §2, §3, §4
(§5) PBQ was used as a commercially available reference initiator, with MDEA as a co-initiator. The ketoesters ethyl pyruvate (1) and dimethylfurandione (8) can be used as novel initiators without any co-initiator. Due to its longwave absorption maximum (λmax=378 nm instead of 330 nm for compound (1)), compound (8) can also be used using visible light which is harmless for cells.

[6] = longwave absorption maximum; format: physicochemical
Description: as §5

[7] = curing test in silicone mold, Intelli-Ray 400 W UV oven; conditions: 1 g HDDA with 1 wt % initiator, 100% power, after a few seconds
[8] = monomer HDDA, type I initiators, without any co-initiators (Table 5)
[9] = monomer HDDA, type I, without any co-initiators
[10] = acrylate (HDDA), co-initiator (Table 10, C8)
[11] = monomer HDDA, co-initiator DMAB
[12] = monomer HDDA, co-initiator MDEA
[13] = monomer HDDA, co-initiator shown only as drawing (Table 11)
[14] = monomer HDDA, co-initiator shown only as drawing (Table 13)
[15] = monomer HDDA, co-initiator shown only as drawing, reference is benzophenone/amine system (Table 11)
[16] = dental formulation DDM, co-initiator DMAB (Table 12)
[17] = methacrylates, co-initiator DMAB (Table 10)
[18] = monomer DDM, co-initiator DMAB (Table 7)
[19] = monomer HDDA, no co-initiator listed (Table 3)
[20] = monomer HDDA, co-initiator thiol
[21] = HDDA, without any co-initiator (Table 10)

Compound: CC(C)(Br)C(=O)c1ccccc1 [BD, 2-bromo-2-methyl-1-phenylpropan-1-one, reference compound]
RP (polymerization rate) [1, 8]: 146 mmol/L/s | DBC [1, 9]: 57.6% | t95% [1, 9]: 62.5 s

Compound: O=C(c1ccccc1)c1ccccc1 [BP, Benzophenone, reference compound]
DBC [1, 10]: 69% | RP (polymerization rate) [1, 10]: 93 mmol/L/s | t95% [1, 10]: 69 s | DBC (double bond conversion) [1, 11]: 68.9% | RP (polymerization rate) [1, 11]: 96 mmol/L/s | t95% (time after which 95% of reaction heat released) [1, 11]: 85.5 s | DBC [1, 12]: 69.3% | RP (polymerization rate) [1, 12]: 109 mmol/L/s | t95% [1, 12]: 77.0 s | DBC [1, 13]: 69% | t95% [1, 13]: 69 s | DBC [1, 14]: 69% | RP (polymerization rate) [1, 14]: 93 mmol/L/s | t95% [1, 14]: 69 s | RP (polymerization rate) [1, 15]: 93 mmol/L/s | DBC [2, 16]: 49% | RP (polymerization rate) [2, 16]: 21 mmol/L/s | t95% [2, 16]: 143 s | DBC [2, 17]: 49% | RP (polymerization rate) [2, 17]: 21 mmol/L/s | t95% [2, 17]: 143 s | DBC [2, 18]: 50% | RP (polymerization rate) [2, 18]: 21.4 mmol/L/s | t95% [2, 18]: 146.5 s | Area [3]: 642 J/g | DSC [3]: 4.37 mW · mg^−1

Compound: CN(C)CC(O)COc1ccc(C(=O)c2ccccc2)cc1.Cl (centres unmarked) [BPQ, 3-(4-benzoylphenoxy)-2-hydroxy-N,N-dimethylpropane-1-amine Hydrochloride, reference compound]
concentration at which significant toxic effects were observed [4]: 8000 µM | DBC ([5]; co-initiator MDEA): 50% | RP (polymerization rate) ([5]; co-initiator MDEA): 30 mmol/L/s | t95% ([5]; co-initiator MDEA): 87 s

longwave absorption maximum λmax [6]: 330 nm
Compound: CCOC(=O)C(C)=O [Compound 1, 2-Oxopropanoic Acid Ethyl Ester]
DBC (double bond conversion) [1, 11]: 66.5% | RP (polymerization rate) [1, 11]: 230 mmol/L/s | t95% (time after which 95% of reaction heat released) [1, 11]: 41.7 s | DBC [1, 19]: 69.3% | RP (polymerization rate) [1, 19]: 210 mmol/L/s | t95% [1, 19]: 56.0 s | DBC [2, 18]: 57% | RP (polymerization rate) [2, 18]: 74.5 mmol/L/s | t95% [2, 18]: 83.0 s | Area [3]: 466 J/g | DSC [3]: 1.7 mW · mg^−1 | DBC ([5]; without co-initiator): 48% | RP (polymerization rate) ([5]; without co-initiator): 33 mmol/L/s | t95% ([5]; without co-initiator): 83 s

Compound: CCC(=O)C(=O)OC [Compound 2, 2-oxobutanoic Acid Methyl Ester]
DBC (double bond conversion) [1, 11]: 60.9% | RP (polymerization rate) [1, 11]: 204 mmol/L/s | t95% (time after which 95% of reaction heat released) [1, 11]: 40.5 s | DBC [2, 18]: 57% | RP (polymerization rate) [2, 18]: 71.2 mmol/L/s | t95% [2, 18]: 85.5 s

Compound: CCOC(=O)C(=O)C(C)C [Compound 3, 2-oxo-3-Methylbutanoic Acid Ethyl Ester]
DBC (double bond conversion) [1, 11]: 65.8% | t95% (time after which 95% of reaction heat released) [1, 11]: 36.6 s | RP (polymerization rate) ([1]; monomer HDDA, co-initiator DMAB, listed as E3): 241 mmol/L/s and 241.0 mmol/L/s | DBC [1, 12]: 65.2% | RP (polymerization rate) [1, 12]: 228 mmol/L/s | t95% [1, 12]: 56.5 s | RP (polymerization rate) ([1]; monomer HDDA, co-initiator pentaerythritol-tetrakis(3-mercaptopropionate) (thiol)): 233.5 mmol/L/s | DBC [1, 20]: 68.0% | t95% [1, 20]: 45.0 s | DBC [2, 18]: 57% | RP (polymerization rate) [2, 18]: 81.5 mmol/L/s | t95% [2, 18]: 58.5 s

Compound: COC(=O)C(=O)C(C)(C)C [Compound 4, 2-oxo-3,3-dimethylbutanoic Acid Methyl Ester]
DBC (double bond conversion) [1, 11]: 59.1% | RP (polymerization rate) [1, 11]: 170 mmol/L/s | t95% (time after which 95% of reaction heat released) [1, 11]: 42.5 s | DBC [1, 12]: 64.6% | RP (polymerization rate) [1, 12]: 234 mmol/L/s | t95% [1, 12]: 41.0 s | DBC [1, 19]: 64.6% | RP (polymerization rate) [1, 19]: 214 mmol/L/s | t95% [1, 19]: 53.5 s | DBC [2, 18]: 51% | RP (polymerization rate) [2, 18]: 55.9 mmol/L/s | t95% [2, 18]: 69.5 s

Compound: CCOC(=O)C(=O)C(C)(C)Br [Compound 5, 3-bromo-3-methyl-2-oxobutanoic Acid Ethyl Ester]
RP (polymerization rate) [1, 8]: 239 mmol/L/s | DBC [1, 9]: 62.1% | t95% [1, 9]: 40.0 s

longwave absorption maximum λmax [6]: 378 nm
Compound: CC1(C)COC(=O)C1=O [Compound 8, 4,4-dimethyldihydrofuran-2,3-dione]
DBC [1, 21]: 66% | RP (polymerization rate) [1, 21]: 189 mmol/L/s | t95% [1, 21]: 58 s | DBC [2, 17]: 54% | RP (polymerization rate) [2, 17]: 52 mmol/L/s | t95% [2, 17]: 90 s | DBC ([5]; without co-initiator): 56% | RP (polymerization rate) ([5]; without co-initiator): 26 mmol/L/s | t95% ([5]; without co-initiator): 78 s

Compound: CCOC(=O)CCC(=O)C(=O)OCC [Compound 9, α-Ketoglutaric Acid Diethyl Ester]
DBC [1, 13]: 67% | t95% [1, 13]: 58 s | RP (polymerization rate) [1, 15]: 201 mmol/L/s | DBC [2, 16]: 53% | RP (polymerization rate) [2, 16]: 66 mmol/L/s | t95% [2, 16]: 85 s

Compound: CC(=O)C(=O)OCCN(C)C [Compound 10, N,N′-dimethylaminopyruvate]
result of curing test [7]: transparent, hard sample rod was obtained

Compound: C=C(C)C(=O)OCCOC(=O)CCC(=O)C(=O)OCCOC(=O)C(=C)C [Compound 11, α-Ketoglutaric Acid di(hydroxyethylmethacrylate) Ester]
DBC [1, 13]: 64% | t95% [1, 13]: 53 s | RP (polymerization rate) [1, 15]: 203 mmol/L/s | DBC [2, 16]: 52% | RP (polymerization rate) [2, 16]: 57 mmol/L/s | t95% [2, 16]: 93 s

Compound: CCOC(=O)C(=O)C(C)(C)O [Compound E5]
DBC (double bond conversion) [1, 11]: 63.1% | RP (polymerization rate) [1, 11]: 218 mmol/L/s | t95% (time after which 95% of reaction heat released) [1, 11]: 73.0 s

Compound: CCOC(=O)C(=O)c1ccccc1 [PGO, Ethyl Phenylglyoxylate, reference compound]
DBC [1, 19]: 75.1% | RP (polymerization rate) [1, 19]: 204 mmol/L/s | t95% [1, 19]: 63.0 s
